Test results as given in ChEMBL document CHEMBL1201862, “PubChem BioAssay data set” (2004).
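Growth conditions: 96-well plates. Treatment: test compound, 48 hours, 5 concentrations. Analysis: linear interpolation between bracketing concentrations; unreached endpoints set to highest concentration. GI50 = concentration required for 50% inhibition of growth.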 Active and inactive are the calls of the source. No stated cut-off is given here; in the data, active = GI50 up to about 1.1 µM and inactive = higher.

Tests used:
Test in all cases: NCI anticancer screen, dose series, 48 h
HOP-92 = tested on: HOP-92
CAKI-1 = tested on: CAKI-1
M14 = tested on: M14
MCF7 = tested on: MCF7
TK-10 = tested on: TK-10
ACHN = tested on: ACHN
UACC-257 = tested on: UACC-257
Malme-3M = tested on: Malme-3M
NCI/ADR-RES = tested on: NCI/ADR-RES
SR = tested on: SR
KM-20L2 = tested on: KM-20L2
DMS-114 = tested on: DMS-114
LXFL 529 = tested on: LXFL 529
SNB-78 = tested on: SNB-78
M19-MEL = tested on: M19-MEL
DMS-273 = tested on: DMS-273
DLD-1 = tested on: DLD-1
786-0 = tested on: 786-0
HOP-18 = tested on: HOP-18
XF498 = tested on: XF498

Measured: GI50

CN(CCO)Cc1ncccc1O
inactive: HOP-92 > 100 µM | CAKI-1 > 100 µM | M14 > 100 µM | MCF7 > 100 µM | TK-10 > 100 µM | ACHN > 100 µM | UACC-257 > 100 µM | Malme-3M > 100 µM | NCI/ADR-RES > 100 µM | SR > 100 µM

CON(C)C(C#N)=C(C#N)C#N
inactive: CAKI-1 > 10 µM | M14 > 10 µM | MCF7 > 10 µM | TK-10 > 10 µM | ACHN > 10 µM | Malme-3M > 10 µM | NCI/ADR-RES > 10 µM | SR > 10 µM

O=C1c2ccccc2N(O)C1(c1ccccc1)C1CCCC=C1N1CCOCC1 (stereo not drawn)
inactive: KM-20L2 > 100 µM | CAKI-1 > 100 µM | M14 > 100 µM | DMS-114 50.1 µM | LXFL 529 68.5 µM | SNB-78 > 100 µM | TK-10 > 100 µM | ACHN > 100 µM | M19-MEL > 100 µM | UACC-257 70.6 µM | DMS-273 > 100 µM | SR 28.4 µM | DLD-1 > 100 µM

COc1cccc(OCC(=N/NC(=O)c2ccncc2)/N=C/c2ccncc2)c1
inactive: 786-0 > 100 µM | HOP-92 > 100 µM | CAKI-1 > 100 µM | M14 > 100 µM | MCF7 > 100 µM | TK-10 > 100 µM | ACHN > 100 µM | UACC-257 > 100 µM | Malme-3M > 100 µM | NCI/ADR-RES > 100 µM

O=[N+]([O-])c1ccc(N2N=C(c3ccc(NCc4nc5ccccc5[nH]4)cc3)CC2c2ccco2)cc1 (stereo not drawn)
inactive: 786-0 44 µM | HOP-92 32.2 µM | CAKI-1 48.6 µM | M14 23.5 µM | DMS-114 18.1 µM | LXFL 529 11.1 µM | HOP-18 50.5 µM | TK-10 47.2 µM | ACHN 22.8 µM | M19-MEL 29.3 µM | DMS-273 21.2 µM | Malme-3M 28.5 µM | SR 8.85 µM | DLD-1 29.4 µM

CC(=O)Nc1ccc(C(=O)NN2C(=O)C(Cl)/C2=C/c2ccco2)cc1 (stereo not drawn)
inactive: HOP-92 > 100 µM | LXFL 529 > 100 µM | HOP-18 > 100 µM | TK-10 > 100 µM | ACHN > 100 µM | M19-MEL > 100 µM | UACC-257 > 100 µM | Malme-3M > 100 µM | SR > 100 µM | DLD-1 > 100 µM

CC1=CC(C)C(C)N(CC2=NCCN2)c2ccccc21 (stereo not drawn)
inactive: 786-0 83.2 µM | HOP-92 11 µM | CAKI-1 > 86.9 µM | M14 17.8 µM | MCF7 53.7 µM | TK-10 54.2 µM | ACHN 97.9 µM | UACC-257 19.5 µM | Malme-3M 21.4 µM | NCI/ADR-RES 99.5 µM | SR 26 µM

CCOC(=O)/C=C/n1c2ccccc2c(=O)c2ccccc21
inactive: 786-0 > 100 µM | KM-20L2 > 100 µM | CAKI-1 > 100 µM | M14 > 100 µM | DMS-114 > 100 µM | LXFL 529 > 100 µM | XF498 > 100 µM | TK-10 > 100 µM | ACHN > 100 µM | M19-MEL > 100 µM | UACC-257 > 100 µM | DMS-273 > 100 µM | Malme-3M > 100 µM | SR > 100 µM | DLD-1 23.1 µM

CC1=C2C3OC(=O)C(C)C3CCC2(C)C=C/C1=N\c1ccccc1 (stereo not drawn)
inactive: HOP-92 > 100 µM | KM-20L2 > 100 µM | DMS-114 > 100 µM | MCF7 > 100 µM | SNB-78 > 100 µM | HOP-18 > 57.1 µM | M19-MEL > 100 µM | UACC-257 > 100 µM | DMS-273 > 100 µM | Malme-3M > 100 µM | NCI/ADR-RES > 100 µM | DLD-1 > 100 µM

CC1CC/C(=C\c2ccc(N(C)C)cc2)C2=C1C(c1ccc(N(C)C)cc1)NC(=S)N2 (stereo not drawn)
inactive: 786-0 > 100 µM | CAKI-1 > 100 µM | M14 > 100 µM | MCF7 > 100 µM | TK-10 > 100 µM | ACHN > 100 µM | UACC-257 > 100 µM | Malme-3M > 100 µM | NCI/ADR-RES > 100 µM

O=C(/C=C/c1ccc(OCc2ccccc2)cc1)NCc1ccc(C(=O)NCc2ccccc2)cc1
inactive: 786-0 > 100 µM | HOP-92 > 100 µM | CAKI-1 > 100 µM | M14 > 100 µM | MCF7 > 100 µM | TK-10 > 100 µM | ACHN > 100 µM | UACC-257 > 100 µM | Malme-3M > 100 µM | NCI/ADR-RES > 100 µM | SR > 100 µM

CN(C)C(=O)NCCN1CCCCCc2ccccc21
inactive: HOP-92 32.4 µM | CAKI-1 > 100 µM | M14 46.3 µM | MCF7 > 100 µM | TK-10 > 100 µM | ACHN > 100 µM | UACC-257 76 µM | Malme-3M > 100 µM | NCI/ADR-RES > 100 µM | SR > 100 µM

CC[C@H](O)[C@H](C)C=C1SCCCS1
inactive: 786-0 > 100 µM | HOP-92 > 100 µM | CAKI-1 > 100 µM | M14 > 100 µM | MCF7 > 100 µM | TK-10 > 100 µM | ACHN > 100 µM | UACC-257 > 100 µM | Malme-3M > 100 µM | NCI/ADR-RES > 100 µM | SR > 100 µM

CCOC(=O)c1cc(Br)c(-c2cc(C)no2)[nH]1
inactive: 786-0 43.7 µM | HOP-92 29.9 µM | M14 39.7 µM | TK-10 46.5 µM | ACHN 28.8 µM | UACC-257 28.1 µM | Malme-3M 20.9 µM | NCI/ADR-RES 30.4 µM

CC(=O)c1c2c(cc3c1CC1(Cc4cc5c(cc4C1)C(=O)CCC5)C3)CCCC2 (stereo not drawn)
inactive: 786-0 5.66 µM | HOP-92 2.55 µM | CAKI-1 7.73 µM | M14 7.8 µM | MCF7 4.49 µM | TK-10 16.5 µM | ACHN 2.97 µM | UACC-257 3.34 µM | Malme-3M 6.64 µM | NCI/ADR-RES 5 µM | SR 2.48 µM

O=C1C(Cl)N(c2ccccc2[N+](=O)[O-])C1c1c[nH]c2ccccc12 (stereo not drawn)
inactive: HOP-92 81.3 µM | KM-20L2 > 100 µM | M14 > 100 µM | DMS-114 > 100 µM | LXFL 529 > 100 µM | XF498 > 100 µM | TK-10 > 100 µM | M19-MEL > 100 µM | UACC-257 > 100 µM | Malme-3M 94.4 µM | SR > 100 µM

O=C(NCCCl)SCCO
inactive: 786-0 > 100 µM | KM-20L2 > 100 µM | M14 > 100 µM | DMS-114 > 100 µM | LXFL 529 > 100 µM | SNB-78 > 100 µM | TK-10 > 100 µM | ACHN > 100 µM | M19-MEL > 100 µM | UACC-257 > 100 µM | DMS-273 > 100 µM | Malme-3M > 100 µM | SR > 100 µM | DLD-1 > 100 µM
